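Grown in 96-well plates, cells were treated for 48 hours with each compound at five concentrations. Insufficient inhibition: endpoint recorded as highest concentration tested. Here, GI50 denotes the concentration required for 50% inhibition of growth.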 Active and inactive are the calls of the source. Cut-off read from the data, not from the text of the source: active = GI50 up to about 1.1 µM and inactive = higher.
Key:
Experiment in all cases: NCI tumour cell line growth inhibition, 48 h
MDA-MB-231 = test system: MDA-MB-231
DU-145 = test system: DU-145
SK-MEL-28 = test system: SK-MEL-28
SK-MEL-2 = test system: SK-MEL-2
HOP-62 = test system: HOP-62
BT-549 = test system: BT-549
NCI/ADR-RES = test system: NCI/ADR-RES
RPMI-8226 = test system: RPMI-8226
OVCAR-3 = test system: OVCAR-3
K562 = test system: K562
ACHN = test system: ACHN
A549 = test system: A549
OVCAR-4 = test system: OVCAR-4
786-0 = test system: 786-0
HOP-92 = test system: HOP-92
OVCAR-5 = test system: OVCAR-5
OVCAR-8 = test system: OVCAR-8
NCI-H226 = test system: NCI-H226
M14 = test system: M14
SNB-75 = test system: SNB-75

S=C(S)NCCCn1ccnc1
GI50 (MDA-MB-231): > 100 µM (inactive)
GI50 (DU-145): > 100 µM (inactive)
GI50 (SK-MEL-28): > 100 µM (inactive)
GI50 (SK-MEL-2): > 100 µM (inactive)
GI50 (HOP-62): > 100 µM (inactive)
GI50 (BT-549): > 100 µM (inactive)
GI50 (NCI/ADR-RES): > 100 µM (inactive)
GI50 (RPMI-8226): > 100 µM (inactive)
GI50 (OVCAR-3): > 100 µM (inactive)
GI50 (K562): > 100 µM (inactive)
GI50 (ACHN): > 100 µM (inactive)
GI50 (A549): > 100 µM (inactive)
GI50 (OVCAR-4): > 100 µM (inactive)
GI50 (786-0): > 100 µM (inactive)
GI50 (HOP-92): > 100 µM (inactive)
GI50 (OVCAR-5): > 100 µM (inactive)
GI50 (OVCAR-8): > 100 µM (inactive)
GI50 (NCI-H226): > 100 µM (inactive)
GI50 (M14): > 100 µM (inactive)

O=C(c1ccccc1)c1ccc2c(c1)nc1n2C(c2c(F)cccc2F)SC1 (stereo not given)
GI50 (MDA-MB-231): 41.9 µM (inactive)
GI50 (DU-145): 40.5 µM (inactive)
GI50 (SK-MEL-28): 32.1 µM (inactive)
GI50 (SK-MEL-2): 18.5 µM (inactive)
GI50 (HOP-62): 34 µM (inactive)
GI50 (BT-549): 26.7 µM (inactive)
GI50 (NCI/ADR-RES): 29.9 µM (inactive)
GI50 (RPMI-8226): 30.3 µM (inactive)
GI50 (OVCAR-3): 19.9 µM (inactive)
GI50 (ACHN): 28.8 µM (inactive)
GI50 (A549): 22 µM (inactive)
GI50 (OVCAR-4): 21.7 µM (inactive)
GI50 (786-0): 27.4 µM (inactive)
GI50 (HOP-92): 40.5 µM (inactive)
GI50 (SNB-75): 18.9 µM (inactive)
GI50 (OVCAR-5): 25.8 µM (inactive)
GI50 (OVCAR-8): 24.5 µM (inactive)
GI50 (NCI-H226): 34.8 µM (inactive)
GI50 (M14): 20.8 µM (inactive)

COCN1C(=O)[C@@H]2CCCN2C(=O)c2cc(Cl)ccc21
GI50 (MDA-MB-231): > 100 µM (inactive)
GI50 (DU-145): > 100 µM (inactive)
GI50 (SK-MEL-28): > 100 µM (inactive)
GI50 (SK-MEL-2): > 100 µM (inactive)
GI50 (HOP-62): > 100 µM (inactive)
GI50 (BT-549): > 100 µM (inactive)
GI50 (NCI/ADR-RES): > 100 µM (inactive)
GI50 (RPMI-8226): > 100 µM (inactive)
GI50 (K562): > 100 µM (inactive)
GI50 (ACHN): > 100 µM (inactive)
GI50 (A549): > 100 µM (inactive)
GI50 (OVCAR-4): > 100 µM (inactive)
GI50 (786-0): > 100 µM (inactive)
GI50 (HOP-92): > 100 µM (inactive)
GI50 (SNB-75): > 100 µM (inactive)
GI50 (OVCAR-5): > 100 µM (inactive)
GI50 (OVCAR-8): > 100 µM (inactive)
GI50 (M14): > 100 µM (inactive)

CCOC(=O)/C=C/[C@H](O[Si](CC)(CC)CC)C(C)(C)C
GI50 (MDA-MB-231): 80.4 µM (inactive)
GI50 (DU-145): > 100 µM (inactive)
GI50 (SK-MEL-2): 23.2 µM (inactive)
GI50 (HOP-62): 83.6 µM (inactive)
GI50 (BT-549): > 100 µM (inactive)
GI50 (NCI/ADR-RES): > 100 µM (inactive)
GI50 (RPMI-8226): 20.6 µM (inactive)
GI50 (OVCAR-3): 52.7 µM (inactive)
GI50 (K562): 65.8 µM (inactive)
GI50 (ACHN): 28.7 µM (inactive)
GI50 (A549): 35 µM (inactive)
GI50 (OVCAR-4): 48.1 µM (inactive)
GI50 (786-0): 80.5 µM (inactive)
GI50 (HOP-92): > 100 µM (inactive)
GI50 (SNB-75): > 100 µM (inactive)
GI50 (OVCAR-5): 89.9 µM (inactive)
GI50 (OVCAR-8): > 100 µM (inactive)
GI50 (NCI-H226): > 100 µM (inactive)

COC(=O)c1c(O)c(C#N)c2[nH]c3ccccc3n2c1=O
GI50 (MDA-MB-231): > 100 µM (inactive)
GI50 (DU-145): > 100 µM (inactive)
GI50 (SK-MEL-2): > 100 µM (inactive)
GI50 (HOP-62): > 100 µM (inactive)
GI50 (BT-549): > 100 µM (inactive)
GI50 (NCI/ADR-RES): > 100 µM (inactive)
GI50 (RPMI-8226): > 100 µM (inactive)
GI50 (OVCAR-3): > 100 µM (inactive)
GI50 (K562): > 100 µM (inactive)
GI50 (ACHN): > 100 µM (inactive)
GI50 (A549): > 100 µM (inactive)
GI50 (OVCAR-4): > 100 µM (inactive)
GI50 (786-0): > 100 µM (inactive)
GI50 (HOP-92): > 100 µM (inactive)
GI50 (SNB-75): > 100 µM (inactive)
GI50 (OVCAR-5): > 100 µM (inactive)
GI50 (OVCAR-8): > 100 µM (inactive)
GI50 (NCI-H226): > 100 µM (inactive)
GI50 (M14): > 100 µM (inactive)

CCNc1nc2c(ncn2C2CC(O)C(COP(=O)(O)O)O2)c(=O)[nH]1 (stereo not given)
GI50 (MDA-MB-231): > 100 µM (inactive)
GI50 (DU-145): > 100 µM (inactive)
GI50 (SK-MEL-28): > 100 µM (inactive)
GI50 (SK-MEL-2): > 100 µM (inactive)
GI50 (HOP-62): > 100 µM (inactive)
GI50 (BT-549): > 100 µM (inactive)
GI50 (NCI/ADR-RES): > 100 µM (inactive)
GI50 (RPMI-8226): > 100 µM (inactive)
GI50 (OVCAR-3): > 100 µM (inactive)
GI50 (ACHN): > 100 µM (inactive)
GI50 (A549): > 100 µM (inactive)
GI50 (OVCAR-4): > 100 µM (inactive)
GI50 (786-0): > 100 µM (inactive)
GI50 (HOP-92): > 100 µM (inactive)
GI50 (SNB-75): > 100 µM (inactive)
GI50 (OVCAR-5): > 100 µM (inactive)
GI50 (OVCAR-8): > 100 µM (inactive)
GI50 (NCI-H226): > 100 µM (inactive)
GI50 (M14): > 100 µM (inactive)

CC(C)(C)OC(=O)NCC(c1c[nH]c2ccccc12)c1c[nH]c2ccccc12
GI50 (MDA-MB-231): 16 µM (inactive)
GI50 (DU-145): 15.6 µM (inactive)
GI50 (SK-MEL-28): 18.1 µM (inactive)
GI50 (SK-MEL-2): 18.4 µM (inactive)
GI50 (HOP-62): 16.9 µM (inactive)
GI50 (BT-549): 18.9 µM (inactive)
GI50 (NCI/ADR-RES): 19.4 µM (inactive)
GI50 (RPMI-8226): 6.62 µM (inactive)
GI50 (OVCAR-3): 15.3 µM (inactive)
GI50 (ACHN): > 100 µM (inactive)
GI50 (A549): 14.6 µM (inactive)
GI50 (OVCAR-4): 12.9 µM (inactive)
GI50 (786-0): 16.1 µM (inactive)
GI50 (HOP-92): 13.1 µM (inactive)
GI50 (SNB-75): 14.7 µM (inactive)
GI50 (OVCAR-5): 16.9 µM (inactive)
GI50 (OVCAR-8): 16.7 µM (inactive)
GI50 (NCI-H226): 21 µM (inactive)
GI50 (M14): 14.9 µM (inactive)

Clc1nc(Cl)c(Cl)c(Cl)n1
GI50 (MDA-MB-231): 18 µM (inactive)
GI50 (DU-145): 16.7 µM (inactive)
GI50 (SK-MEL-28): 19.6 µM (inactive)
GI50 (HOP-62): 19.6 µM (inactive)
GI50 (BT-549): 20.6 µM (inactive)
GI50 (NCI/ADR-RES): 23.4 µM (inactive)
GI50 (RPMI-8226): 43.3 µM (inactive)
GI50 (OVCAR-3): 13.9 µM (inactive)
GI50 (K562): 8.99 µM (inactive)
GI50 (ACHN): 8.91 µM (inactive)
GI50 (A549): 19.8 µM (inactive)
GI50 (OVCAR-4): 23 µM (inactive)
GI50 (786-0): 19.7 µM (inactive)
GI50 (HOP-92): 25.5 µM (inactive)
GI50 (SNB-75): 17.8 µM (inactive)
GI50 (OVCAR-5): 20.5 µM (inactive)
GI50 (OVCAR-8): 26.4 µM (inactive)
GI50 (NCI-H226): 20.7 µM (inactive)
GI50 (M14): 17 µM (inactive)

CN1C(=O)C23CCCC2CC1(c1ccccc1)S3 (stereo not given)
GI50 (MDA-MB-231): 90.4 µM (inactive)
GI50 (DU-145): > 100 µM (inactive)
GI50 (SK-MEL-28): > 100 µM (inactive)
GI50 (SK-MEL-2): 49.7 µM (inactive)
GI50 (HOP-62): > 100 µM (inactive)
GI50 (BT-549): 95.5 µM (inactive)
GI50 (NCI/ADR-RES): 64.9 µM (inactive)
GI50 (RPMI-8226): > 100 µM (inactive)
GI50 (OVCAR-3): > 100 µM (inactive)
GI50 (K562): > 100 µM (inactive)
GI50 (ACHN): > 100 µM (inactive)
GI50 (A549): > 100 µM (inactive)
GI50 (OVCAR-4): 56.1 µM (inactive)
GI50 (786-0): > 100 µM (inactive)
GI50 (HOP-92): 41 µM (inactive)
GI50 (OVCAR-5): > 100 µM (inactive)
GI50 (OVCAR-8): > 100 µM (inactive)
GI50 (NCI-H226): > 100 µM (inactive)
GI50 (M14): > 100 µM (inactive)

N/C(=N\c1ccc(Cl)cc1)c1ccccc1N
GI50 (MDA-MB-231): > 100 µM (inactive)
GI50 (DU-145): > 100 µM (inactive)
GI50 (SK-MEL-28): > 100 µM (inactive)
GI50 (HOP-62): > 100 µM (inactive)
GI50 (BT-549): > 100 µM (inactive)
GI50 (NCI/ADR-RES): > 100 µM (inactive)
GI50 (RPMI-8226): > 100 µM (inactive)
GI50 (OVCAR-3): > 100 µM (inactive)
GI50 (K562): > 100 µM (inactive)
GI50 (ACHN): > 100 µM (inactive)
GI50 (A549): > 100 µM (inactive)
GI50 (OVCAR-4): > 100 µM (inactive)
GI50 (786-0): > 100 µM (inactive)
GI50 (HOP-92): 3.82 µM (inactive)
GI50 (SNB-75): > 100 µM (inactive)
GI50 (OVCAR-5): > 100 µM (inactive)
GI50 (OVCAR-8): > 100 µM (inactive)
GI50 (NCI-H226): > 100 µM (inactive)
GI50 (M14): > 100 µM (inactive)

CC(=O)O[C@H]1C(=O)[C@@]2(C)[C@H]([C@H](OC(=O)c3ccccc3)[C@]3(O)C[C@H](OC(=O)[C@H](O)[C@@H](NC(=O)CC(C)(C)C)c4ccccc4)C(C)=C1C3(C)C)C1(OC(C)=O)CO[C@@H]1C[C@@H]2O (stereo not given in full)
GI50 (MDA-MB-231): > 10 µM (inactive)
GI50 (DU-145): 0.00836 µM (active)
GI50 (SK-MEL-28): < 0.001 µM (active)
GI50 (SK-MEL-2): 0.002 µM (active)
GI50 (HOP-62): 0.00671 µM (active)
GI50 (BT-549): 0.0968 µM (active)
GI50 (NCI/ADR-RES): 4.26 µM (inactive)
GI50 (RPMI-8226): < 0.001 µM (active)
GI50 (K562): 0.00113 µM (active)
GI50 (ACHN): 0.0764 µM (active)
GI50 (A549): 0.00371 µM (active)
GI50 (OVCAR-4): > 10 µM (inactive)
GI50 (786-0): 0.0251 µM (active)
GI50 (HOP-92): 0.0106 µM (active)
GI50 (SNB-75): < 0.001 µM (active)
GI50 (OVCAR-8): 0.00283 µM (active)
GI50 (NCI-H226): 0.0194 µM (active)
